Test results taken from PubChem BioAssay (NCI).
Values joined by “and” are separate entries in the source; they are usually repeats but may differ in a detail not shown here. Equal values may be shown once.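 Compound exposure: 48 hours, 5 concentrations, 96-well plates. Here, GI50 denotes the concentration required for 50% inhibition of growth. Definition used: TGI = concentration required for complete inhibition of growth.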 Where a SMILES comes first, the peptide text is derived from it. The star is where a group is joined. Boc = CC(C)(C)OC(=O)*

Assays:
Assay in all cases: NCI anticancer screen, dose series, 48 h
EKVX NSCLC = system: EKVX NSCLC
K-562 leukemia = system: K-562 leukemia
KM12 colon = system: KM12 colon
M14 melanoma = system: M14 melanoma
NCI-H23 lung = system: NCI-H23 lung
NCI/ADR-RES ovarian = system: NCI/ADR-RES ovarian
PC-3 prostate = system: PC-3 prostate
SF-268 CNS = system: SF-268 CNS
SK-MEL-2 melanoma = system: SK-MEL-2 melanoma
SK-MEL-28 melanoma = system: SK-MEL-28 melanoma

| SMILES | GI50 (EKVX NSCLC) [µM] | TGI (EKVX NSCLC) [µM] | GI50 (K-562 leukemia) | TGI (K-562 leukemia) | GI50 (KM12 colon) | TGI (KM12 colon) | GI50 (M14 melanoma) [µM] | TGI (M14 melanoma) [µM] | GI50 (NCI-H23 lung) | TGI (NCI-H23 lung) [µM] | GI50 (NCI/ADR-RES ovarian) [µM] | TGI (NCI/ADR-RES ovarian) [µM] | GI50 (PC-3 prostate) [µM] | TGI (PC-3 prostate) [µM] | GI50 (SF-268 CNS) | TGI (SF-268 CNS) [µM] | GI50 (SK-MEL-2 melanoma) [µM] | TGI (SK-MEL-2 melanoma) [µM] | GI50 (SK-MEL-28 melanoma) | TGI (SK-MEL-28 melanoma) [µM] |
| --- | --- | --- | --- | --- | --- | --- | --- | --- | --- | --- | --- | --- | --- | --- | --- | --- | --- | --- | --- | --- |
| COc1ccc(Cn2c(N)c(S(=O)(=O)c3ccc(Cl)cc3)c3nc(C#N)c(C#N)nc32)cc1 | > 50 | > 50 | > 50000 nM | > 50 µM | 28 µM | > 50 µM | 24.8 | > 50 | 17 µM | > 50 | 1.15 | 6 | 33.5 | > 50 | 9.25 µM | 42.3 | 29.8 | > 50 | > 50 µM | > 50 |
| CCc1ccc(/C=C/c2ccc(O)c3ncccc23)[n+](C)c1 | 0.777 | > 100 | 517 nM | > 100 µM | 0.512 µM | > 100 µM |  | > 100 | 4.2 µM | > 100 | > 100 | > 100 | 6.09 | > 100 | 0.749 µM | > 100 | > 71.7 | > 100 | 76.2 µM | > 100 |
| CN(C)c1ncnc2c1ncn2CCn1cnc2c(N(C)C)ncnc21 |  | > 100 |  |  |  | > 100 µM |  | > 100 |  | > 100 |  | > 100 |  | > 100 |  | > 100 |  | > 100 |  | > 100 |
| S=c1[nH]c2c(Cl)c(Cl)c(Cl)c(Cl)c2[nH]1 |  | 37.4 |  | 38.4 µM |  | 33.8 µM |  | 54.3 |  | > 100 |  | 46.5 |  | 77.6 |  | 42.7 |  |  |  |  |
| CC(C)=CCc1cc2c(cc1O)OC[C@H]1c3cc4c(cc3O[C@@H]21)OCO4 |  | 76.9 |  | > 100 µM |  | > 100 µM |  | > 100 |  | 96.3 |  | 76.1 |  | > 100 |  | > 100 |  |  |  | > 100 |
| CC1CCN(C(=O)OCc2nc3nc(Cl)nc(N4CCOCC4)c3[nH]2)CC1 | 1.48 | 3.3 | 434 nM | 13.6 µM | 1.58 µM | 3.33 µM |  |  | 1.58 µM | 3.65 | 2.21 | 10.4 | 0.832 | 2.42 | 1.42 µM | 2.84 | 1.86 | 3.77 | 1.56 µM | 2.94 |
| CC(C(=O)O)c1cccc(Oc2ccccc2)c1 (stereo not given) | > 100 | > 100 | > 100000 nM | > 100 µM | > 100 µM | > 100 µM | > 100 | > 100 | > 100 µM | > 100 | > 100 | > 100 | > 100 | > 100 | > 100 µM | > 100 |  |  | > 100 µM | > 100 |
| CCN(Cc1ccc(F)cc1)c1ccc(CO)c(Br)c1 |  |  | 487 nM | 18.4 µM | 23.4 µM | 63.1 µM | 16.5 | > 55.1 | 15.6 µM | > 56.1 | 13.4 | 46.8 | 12.8 | 36.2 | 22.6 µM | > 56.3 | 0.96 | 12.6 | 15 µM | 50.6 |
| COc1ccc(-c2nsc3c2NC(=O)CC3c2cccc(OC)c2)cc1 (stereo not given) |  |  | 358 nM | > 100 µM | 0.505 µM | > 100 µM | 0.613 | > 100 | 2.59 µM | > 100 | 0.42 | 2.27 | 2.45 | > 100 | 4.53 µM | > 100 | 3.81 | 64.1 | 10.7 µM | > 100 |
| COC(=O)c1ccc2c(c1)/C(=C\c1cc(Br)c(O)c(Br)c1)C(=O)N2 | 15.8 | > 25 | 8140 nM | > 25 µM | 6.79 µM | > 25 µM | 1.88 | 9.23 | 7.22 µM | > 25 | 15.7 | > 25 | 7.68 | > 25 | 10.1 µM | > 25 |  |  | 3.96 µM | > 25 |
| COC(=O)C(C)NC(=O)C(CCSC)NC(=O)C(Cc1ccccc1)NC(=O)OC(C)(C)C (stereo not drawn) (Boc-Phe-Met-Ala-OMe; configuration not given here) |  |  | 32.7 µg/mL | 91.2 µg/mL | 22.4 µg/mL | 51.1 µg/mL and > 100 µM |  | > 100 | 41.9 µg/mL | > 100 |  | > 100 |  | > 100 | 42.3 µg/mL | > 100 |  | > 100 | 38.9 µg/mL | > 100 |
| Cc1cc(N(CCCNc2ccnc3cc(Cl)ccc23)Cc2ccc3c(c2)OCO3)nc(N2CCOCC2)n1 | 0.299 | > 100 | 328 nM | 10 µM | 0.34 µM | 25.7 µM |  |  |  |  | 0.692 | 23 | 0.352 | 29.2 | 0.304 µM | 24.7 | 0.207 | 0.457 | 0.254 µM | 0.681 |
| COc1ccc(/C(=C\C=C(C#N)C#N)Sc2nc3ccccc3s2)cc1 | 10.5 | 22 | 1580 nM | > 50 µM | 10.6 µM | 31.3 µM | 2.52 | 9.08 | 9.46 µM | 20 | 3.69 | 12.6 | 7.34 | 14.3 | 8.53 µM | 25.2 | 34.1 | > 50 |  |  |
| O=C(/C=C/C=C/c1ccccc1)c1ccccc1 |  | 28.6 |  | 66.2 µM |  | 27.3 µM |  | 33.6 |  |  |  | 27.1 |  | 37.2 |  | 38.2 |  | 45.5 |  | 31.3 |
| CCCCCCCN=C(N)c1ccc(N2CCN(c3ccc(C(N)=NCCCCCCC)cc3)CC2)cc1 | 0.175 | 2.94 | 147 nM | > 9.41 µM | > 100 µM | > 100 µM | 7.29 | > 100 |  |  | 1.38 | > 57.7 | 0.268 | > 20 |  | 0.317 | 1.99 | > 100 | 2.08 µM | > 22.4 |
| CC(C)OC(=O)[C@H](C)NP(=O)(OC[C@H]1O[C@@H](n2ccc(=O)[nH]c2=O)[C@](C)(F)[C@@H]1O)Oc1ccccc1 (stereo not given in full) | > 100 | > 100 |  |  | > 100 µM | > 100 µM | > 100 | > 100 | > 100 µM | > 100 | > 100 | > 100 | > 100 | > 100 | > 100 µM | > 100 | > 100 | > 100 | > 100 µM | > 100 |
| O=C1c2cccc3cccc(c23)C(=O)N1CCCCCN1CCN(CCCCCOc2ccc(-c3nc4ccc(N5CCOCC5)cc4[nH]3)cc2)CC1 | > 47.1 | > 74.6 | 135 nM |  | 2.15 µM | 4.29 µM |  |  | 21.2 µM | 46.6 | 8.7 | > 60.2 | 2.77 | 17.6 | 22.4 µM | 43.2 | 10.7 | 32.8 | 13 µM | 25.7 |
| O=c1[nH]c2ccc(O)cc2o1 |  | > 100 |  | > 100 µM |  | > 100 µM |  | > 100 |  | > 100 |  | > 100 |  | > 100 |  | > 100 |  |  |  | > 100 |
| COC(=O)c1ccc(-c2c(C#N)[n+](=O)c3cc(Cl)c(Cl)cc3n2[O-])cc1 | 21.7 | 47.8 | 5540 nM | 21.8 µM | 20.9 µM | 51.3 µM | 16.2 | 34.1 | 11.7 µM | 29.3 | 23.2 | 75.6 | 9.79 | 27.9 | 16.4 µM | 32.1 |  |  | 17.2 µM | 34.8 |
| CN(C)c1ccc(N=Nc2ccccn2)c(O)c1 | 0.2 | 14.4 | 355 nM | > 100 µM | 0.465 µM | > 76.9 µM |  |  | 0.564 µM | > 100 | 0.281 | > 27.6 | 0.416 | > 100 | 0.318 µM | > 100 | 2.79 | > 100 | 0.672 µM | > 100 |
| O=C(NNc1ccccc1)C(=O)NNc1ccccc1 | > 100 | > 100 | 396 nM | > 100 µM | 0.535 µM | > 100 µM |  |  | > 100 µM | > 100 | > 100 | > 100 | > 100 | > 100 | 1.63 µM | > 100 | 2.63 | > 100 | 58.1 µM | > 100 |
| BrCc1cccc(C[P+](c2ccccc2)(c2ccccc2)c2ccccc2)c1 | 18.1 | > 100 | 4260 nM | > 100 µM | 16 µM | > 100 µM |  |  | 36.2 µM | > 100 | > 100 | > 100 | 6.26 | > 100 | 40.4 µM | > 100 | 27.9 | > 100 | 21.7 µM | > 100 |
